Assay results published in paper PMC3337729 (Anesthesiology, 2011).

What was measured:
[1] = target: T1, Complex I (NADH-ubiquinone oxidoreductase) (Rattus norvegicus, UniProt A6K8N6+P03889+Q5XIH3+Q641Y2); assay: rotenone-sensitive NADH oxidation, absorbance at […] nm; format: biochemical; details: 0.2 mM NADH, antimycin A present
[2] = target: T1, Complex I (NADH-ubiquinone oxidoreductase); assay: as above; format: biochemical; details: read-out: % of control activity at 0.5 mM

NC(=O)C1=CN([C@@H]2O[C@H](COP(=O)(O)OP(=O)(O)OC[C@H]3O[C@@H](n4cnc5c(N)ncnc54)[C@H](O)[C@@H]3O)[C@@H](O)[C@H]2O)C=CC1 [NADH]
rotenone-sensitive NADH oxidation, absorbance at 340 nm ([1]; decylubiquinone acceptor): Complex I activity was determined by the rotenone-sensitive reduction of NADH absorbance using decylubiquinone

CCCCCCCCCCC1=C(C)C(=O)C(OC)=C(OC)C1=O [decylubiquinone]
rotenone-sensitive NADH oxidation, absorbance at 340 nm ([1]; decylubiquinone printed as 75 mM): rotenone-sensitive reduction of NADH absorbance using decylubiquinone as acceptor

FC(F)OC(Cl)C(F)(F)F (stereo not drawn) [isoflurane]
remaining activity at 500 µM [2]: 86 ± 5%
